Where “and” joins values, the source holds several entries; their conditions need not be identical. Equal values may be shown once. Entries after “also recorded” stand apart in the source; their conditions may differ.
Key:
[1] = in vivo; cited from earlier work
[2] = target: α6/α3β2β3 nicotinic acetylcholine receptor (Rattus norvegicus, UniProt P04757+P12390+P12391+P43143); details: 95% CI in parentheses
[3] = target: α1β1δε nicotinic acetylcholine receptor (Mus musculus, UniProt P02716+P04756+P09690+P20782); details: 95% CI in parentheses
[4] = target: α2β2 nicotinic acetylcholine receptor (Rattus norvegicus, UniProt P12389+P12390); details: 95% CI in parentheses
[5] = target: T1, human serotonin(3) receptor (Homo sapiens, UniProt P46098); assay: Competition radioligand binding, [3H]LY278584; details: for Ki: 5HT3
T1 sequence (P46098 24-478): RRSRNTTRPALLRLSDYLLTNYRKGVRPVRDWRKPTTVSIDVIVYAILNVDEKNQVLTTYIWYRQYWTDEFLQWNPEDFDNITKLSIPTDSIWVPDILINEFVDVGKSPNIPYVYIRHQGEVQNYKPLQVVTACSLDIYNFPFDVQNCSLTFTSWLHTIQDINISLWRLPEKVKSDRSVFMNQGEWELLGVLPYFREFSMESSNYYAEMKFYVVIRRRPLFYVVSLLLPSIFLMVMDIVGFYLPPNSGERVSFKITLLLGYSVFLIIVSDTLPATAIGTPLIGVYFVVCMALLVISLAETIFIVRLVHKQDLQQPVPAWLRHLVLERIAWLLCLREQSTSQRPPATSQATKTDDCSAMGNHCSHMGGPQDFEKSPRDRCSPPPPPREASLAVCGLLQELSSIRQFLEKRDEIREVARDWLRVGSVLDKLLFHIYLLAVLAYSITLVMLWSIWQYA

mechanical hyperalgesia [6] = assay: Chronic constriction nerve injury model of neuropathic pain; format: in vivo, rat
human μ-opioid receptor = human μ-opioid receptor (Homo sapiens, UniProt P35372); assay: Competition radioligand binding, [3H]DAMGO; details: 95% CI in parentheses
[7] = target: rat γ-aminobutyric acid(B)(1b,2) receptor (Rattus norvegicus, UniProt Q9Z0U4); assay: Competition radioligand binding, [3H]CGP54626; details: GABAB; [3H]CGP54626 2 nM
rat κ-opioid receptor = rat κ-opioid receptor (Rattus norvegicus, UniProt P34975); assay: Competition radioligand binding, [3H]U69593; details: 95% CI in parentheses
[8] = system: nicotinic acetylcholine receptors mediating nicotine-evoked dopamine release; details: ref Zhang et al., 2008; cited from earlier work
[9] = target: α9α10 nicotinic acetylcholine receptors (Rattus norvegicus, UniProt P43144+Q9JLB5)
[10] = target: α4β4 nicotinic acetylcholine receptor (Rattus norvegicus, UniProt P09483+P12392); details: 95% CI in parentheses
[11] = system: α4β2* nicotinic acetylcholine receptors; details: binding assays; ref Zhang et al., 2008; cited from earlier work
[12] = system: nicotinic acetylcholine receptor subtype; assay: Agonist activity at nicotinic receptor subtypes in Xenopus oocytes; details: any nicotinic acetylcholine receptor subtype evaluated; data not shown
[13] = target: α3β2 nicotinic acetylcholine receptor (Rattus norvegicus, UniProt P04757+P12390); details: 95% CI in parentheses
rotarod performance [14] = assay: Motor coordination; format: in vivo, rat
[15] = target: α2β4 nicotinic acetylcholine receptor (Rattus norvegicus, UniProt P12389+P12392); details: 95% CI in parentheses
[16] = system: formalin-induced flinching behavior; assay: Rodent model of inflammatory pain; format: in vivo, rat; details: for ED50 (95% CI): formalin test, i.p. 15 min prior to formalin, rat
[17] = target: rat γ-aminobutyric acid(A) receptor; assay: Competition radioligand binding, [3H]muscimol, rat brain membranes; details: GABAA; [3H]muscimol 5 nM
[18] = target: α4β2 nicotinic acetylcholine receptors (Rattus norvegicus, UniProt P09483+P12390)
[19] = target: α6/α3β4 nicotinic acetylcholine receptor (Rattus norvegicus, UniProt P04757+P12392+P43143); details: 95% CI in parentheses
[20] = target: α7 nicotinic acetylcholine receptors (Rattus norvegicus, UniProt Q05941); assay: Voltage clamp electrophysiology, cloned α7 nicotinic receptor in Xenopus oocytes; details: 95% CI in parentheses
tail flick latency = assay: Thermal acute nociception; format: in vivo, rat; details: for maximum possible effect: tail-flick
[21] = target: α3β4 nicotinic acetylcholine receptor (Rattus norvegicus, UniProt P04757+P12392); details: 95% CI in parentheses
[22] = system: formalin-induced flinching behavior; details: formalin model; i.p.; ref Holtman et al., 2010b; cited from earlier work
rotarod performance [23] = details: ref Holtman et al., 2010b, cited from earlier work
mechanical hyperalgesia [24] = details: chronic constriction injury; i.p.; ref Holtman et al., 2010b; cited from earlier work
[25] = chronic constriction injury paw, 3600 μg/kg i.p.

Question: For α-conotoxin Vc1.1, which adverse effects [1] is on record?
Answer: did not produce any adverse effects

Question: With C(#Cc1cc(C#CCCC[n+]2cccc(-c3ccccc3)c2)c(C#CCCC[n+]2cccc(-c3ccccc3)c2)cc1C#CCCC[n+]1cccc(-c2ccccc2)c1)CCC[n+]1cccc(-c2ccccc2)c1.[Br-].[Br-].[Br-].[Br-] [ZZ-204G, 5,5′,5″, 5‴-(1,2,4,5-benzenetetrayl)tetrakis-[1-(3-phenylpyridinium)-4-pentyne] tetrabromide] as the compound, how does the “Hill Slope” value [2] read?
Answer: 0.44 (0.33–0.56)

Question: What about the IC50 ([2]; oocytes, acetylcholine 100 μM) of the same compound?
Answer: 0.0982 µM

Question: What about the “Hill Slope” value [3] of the same compound?
Answer: 1.61 (1.2–2.1)

Question: And the IC50 ([3]; oocytes, acetylcholine 10 μM)?
Answer: 0.12 µM

Question: And the “Hill Slope” value [4]?
Answer: 1.25 (0.98–1.5)

Question: What about the IC50 ([4]; oocytes, acetylcholine 100 μM) of the same compound?
Answer: 2.33 µM

Question: And the Ki ([5]; [3H]LY278584 0.3 nM, 95% CI in parentheses)?
Answer: 2.23 µM

Question: And the Ki ([5]; displacing [3H]LY27854)?
Answer: 2.2 µM

Question: What about the “Hill Slope” value ([5]; 5HT3 binding, 95% CI in parentheses) of the same compound?
Answer: 1.05 (0.73–1.37)

Question: And the maximum possible effect (mechanical hyperalgesia [6]; [25])?
Answer: 81.9±7.6%

Question: And the “time maximum possible effect was maintained after administration” value (mechanical hyperalgesia [6]; [25])?
Answer: 240 min

Question: And the “time to reach maximum possible effect” value (mechanical hyperalgesia [6]; [25])?
Answer: ≤ 60 min

Question: What about the “ED50 (95% CL)” value (mechanical hyperalgesia [6]; chronic constriction injury, paw pressure test, mechanical hyperalgesia, i.p., rat) of the same compound?
Answer: 96.2 (35.7–255.3) μg/kg

Question: And the “AUC0–120min (antihyperalgesic effect)” value (mechanical hyperalgesia [6]; chronic constriction injury, 3.6 μg/kg i.p.)?
Answer: 932.8±672.1

Question: What about the “AUC0–120min (antihyperalgesic effect)” value (mechanical hyperalgesia [6]; chronic constriction injury, 36 μg/kg i.p.) of the same compound?
Answer: 1845.3±1008.0

Question: And the “AUC0–120min (antihyperalgesic effect)” value (mechanical hyperalgesia [6]; chronic constriction injury, 360 μg/kg i.p.)?
Answer: 3126.6±840.9

Question: What about the “AUC0–120min (antihyperalgesic effect)” value (mechanical hyperalgesia [6]; chronic constriction injury, 3600 μg/kg i.p.) of the same compound?
Answer: 6946.9±1632.2

Question: And the “Hill Slope” value (human μ-opioid receptor; μ-opioid binding)?
Answer: 1.1 (0.94–1.3)

Question: And the Ki (human μ-opioid receptor; μ-opioid, [3H]DAMGO 0.3 nM)?
Answer: 0.659 µM

Question: And the Ki [7]?
Answer: > 10 µM

Question: And the “Hill Slope” value (rat κ-opioid receptor; κ-opioid binding)?
Answer: 0.95 (0.67–1.2)

Question: And the Ki (rat κ-opioid receptor; κ-opioid, [3H]U69593 0.3 nM)?
Answer: 0.783 µM

Question: And the “antagonism at nicotinic receptors mediating nicotine-evoked dopamine release” value [8]?
Answer: weak antagonist

Question: What about the “inhibition of the acetylcholine response” value ([9]; α9α10, 10 nM compound, 0.01 µM) of the same compound?
Answer: 93.9 ± 1.4% and ~ 95%

Question: And the “effect on current with Ca++ in buffer replaced with equimolar Ba++” value ([9]; α9α10, 100 nM compound, n=3, data not shown)?
Answer: abolished the current

Question: And the “Hill Slope” value ([9]; α9α10, 95% CI in parentheses)?
Answer: 0.84 (0.59–1.1)

Question: What about the reversibility of block ([9]; α9α10, washout of compound) of the same compound?
Answer: Block was reversed upon washout

Question: What about the “potency at κ- and μ-opioid receptors, fold less than at α9α10” value ([9]; κ- and μ-opioid receptors vs α9α10) of the same compound?
Answer: 1000 fold

Question: And the “Hill Slope” value [10]?
Answer: 1.6 (0.99–2.2)

Question: And the IC50 ([10]; oocytes, acetylcholine 100 μM)?
Answer: 1.73 µM

Question: What about the “affinity for α4β2* nicotinic acetylcholine receptors” value [11] of the same compound?
Answer: poor affinity

Question: What about the agonist activity [12] of the same compound?
Answer: No agonist activity

Question: And the “Hill Slope” value [13]?
Answer: 1.11 (0.28–1.9)

Question: And the IC50 ([13]; oocytes, acetylcholine 100 μM)?
Answer: 0.75 µM

Question: What about the “motor effect at highest antihyperalgesic dose” value (rotarod performance [14]; naïve rats, 3,600 ug/kg) of the same compound?
Answer: significant motor effect

Question: And the “ED50 (95% CI), motor incoordination” value (rotarod performance [14]; rotarod performance, intact rats, i.p.)?
Answer: 1884 (942–3767) μg/kg

Question: And the “Hill Slope” value [15]?
Answer: 1.36 (0.98–1.7)

Question: What about the IC50 ([15]; oocytes, acetylcholine 100 μM) of the same compound?
Answer: 2.9 µM

Question: What about the “ED50 (95% CI)” value ([16]; the first phase (0–10 min)) of the same compound?
Answer: 16.2 (2.9–90.3) μg/kg

Question: What about the “ED50 (95% CI)” value ([16]; the second phase (20–60 min)) of the same compound?
Answer: 2.12 (1.24 – 5.65) μg/kg

Question: What about the “greater potency against formalin-evoked inflammatory pain than neuropathic pain” value ([16]; formalin vs chronic constriction injury) of the same compound?
Answer: ~ 50 fold

Question: What about the Ki [17] of the same compound?
Answer: > 10 µM

Question: What about the “block of acetylcholine-induced currents” value ([18]; 100 nM compound) of the same compound?
Answer: ~ 5% and < 5%

Question: And the “Hill Slope” value ([18]; 95% CI in parentheses)?
Answer: 1.05 (0.73–1.4)

Question: And the IC50 ([18]; oocytes, acetylcholine 100 μM, 95% CI in parentheses)?
Answer: 3.83 µM

Question: What about the “Hill Slope” value [19] of the same compound?
Answer: 1.2 (0.73–1.8)

Question: And the IC50 ([19]; oocytes, acetylcholine 100 μM)?
Answer: 6.14 µM

Question: What about the “Hill Slope” value [20] of the same compound?
Answer: 1.03 (0.48–1.6)

Question: What about the IC50 ([20]; oocytes, acetylcholine 200 μM) of the same compound?
Answer: 0.0088 µM

Question: And the “antinociceptive effect in the tail-flick assay” value (tail flick latency; 3.6, 36, 360 μg/kg i.p. vs saline)?
Answer: not antinociceptive; also recorded: did not significantly differ from that of saline control

Question: What about the maximum possible effect (tail flick latency; 3.6 μg/kg i.p.) of the same compound?
Answer: 8.4±4.6%

Question: What about the maximum possible effect (tail flick latency; 36 μg/kg i.p.) of the same compound?
Answer: 6.2±1.75%

Question: What about the maximum possible effect (tail flick latency; 360 μg/kg i.p.) of the same compound?
Answer: 15.6±2.4%

Question: What about the “Hill Slope” value [21] of the same compound?
Answer: 1.56 (1.1–2.0)

Question: What about the IC50 ([21]; oocytes, acetylcholine 100 μM) of the same compound?
Answer: 0.792 µM

Question: For c1cncc([C@@H]2CCCN2)c1 [S(−) nornicotine], which ED50 [22] is on record?
Answer: 1.5 (0.6–3.6) mg/kg

Question: What about the “ED50 for motor impairment vs. analgesia, fold higher” value (rotarod performance [23]; rotarod vs chronic constriction injury and formalin) of the same compound?
Answer: 3–9 fold

Question: What about the ED50 (rotarod performance [23]; rotarod, motor impairment, i.p.) of the same compound?
Answer: 13.6 (9.2–19.9) mg/kg

Question: What about the ED50 (mechanical hyperalgesia [24]) of the same compound?
Answer: 5.2 (3.1–8.5) mg/kg

Reference: publication PMC3215271 (European journal of pharmacology, 2011)
